# Tested on: guinea pigs exposed to smoke of cigarette
# Assay: Cigarette smoke exposure guinea pig COPD model, respiratory functions by Double-chamber Plethymograph method
# Type: in vivo, Hartley strain guinea pigs
# Conditions: 10 mg/kg orally once a day; for Changes in Peak expiration flow / Changes in Specific airway resistance value: change vs value before exposure to cigarette smoke
# Method: In accordance with the method of Jun-ichi Fuchikami, et al. (Japanese Journal of Pharmacology, 2000, (82), p. 247), the following pharmacological test was conducted.
# Hartley strain guinea pigs (5 weeks age, body weight: 300 to 379.5 g) were exposed to smoke of cigarette (trade name: Hi-Light, manufactured by Japan Tobacco Inc.) for 1 hour/day, 5 days a week, during 4 weeks, by using a flow-past type nose-only inhalation chamber, manufactured by Muenster Co. Control group as a normal group was exposed to the atmospheric air instead of cigarette smoke.
# Compound A was suspended in 0.5% tragacanth gum aqueous solution, and this suspension was orally administered compulsorily to the guinea pigs (compound A administered group), in the amount of 10 mg/kg once a day, 1 hour before the exposure to cigarette smoke in the day of exposure, and in the morning in the day of non-exposure, respectively.
# To the guinea pigs in the vehicle administered group, a 0.5% tragacanth gum aqueous solution without containing Compound A was orally administered instead of the suspension of compound A.
# While, to the guinea pigs in the control group, neither the 0.5% tragacanth aqueous solution nor the compound A suspension were administered.
# Before exposure and during the period of 4 weeks of exposure to the smoke of cigarette, the respiratory functions (specific airway resistance and peak expiration flow) of the guinea pigs were non-invasively assessed once a week under conscious condition, using Double-chamber Plethymograph method with a respiratory function measuring equipment (Pulmos-I, manufactured by M.I.P.S. Co.).
# The respiratory functions (i.e., values of specific airway resistance and peak expiration flow) were obtained as an average of 100 times measured values of the functions, and were shown as the changes of percentage to the respective value of respiratory function measured before exposure to cigarette smoke.
smiles,measurement,setting,value
"CCOc1ccc(-c2nc(-c3cccc(C(=O)O)n3)cs2)cc1OCC [Compound A, 6-[2-(3,4-diethoxyphenyl)thiazol-4-yl]pyridine-2-carboxylic acid]",Effect on specific airway resistance and peak expiration flow as compared with vehicle administered group,4 weeks cigarette smoke exposure,excellent improving effects
same,Changes in Peak expiration flow,1 Week after exposure,9.67%
same,Changes in Specific airway resistance value,1 Week after exposure,12.75%
same,Changes in Peak expiration flow,2 Week after exposure,15.67%
same,Changes in Specific airway resistance value,2 Week after exposure,41.82%
same,Changes in Peak expiration flow,3 Week after exposure,14.08%
same,Changes in Specific airway resistance value,3 Week after exposure,61.08%
same,Changes in Peak expiration flow,4 Week after exposure,37.06%
same,Changes in Specific airway resistance value,4 Week after exposure,51.26%

# Reference: patent publication US7932276B2, “Agent for curing chronic obstructive pulmonary disease” (Otsuka Pharmaceutical Co., Ltd., priority 2001, dated 2011)
